Assays:
SVZ cells [1] = assay: TUNEL apoptosis assay in SVZ cell cultures; type: cell-based, mouse; details: for TUNEL-positive nuclei: 48 hours
Description: Six- to 8-day-old neurospheres were adhered for 48 hours onto poly-D-lysine-coated glass coverslips in SFM devoid of growth factors. Then, to evaluate proliferation/cell death and neuronal differentiation, the neurospheres were allowed to develop for 48 hours or 7 days at 37° C. in the absence or in the presence of hemopressin (100 nM or 1 μM, Proteimax, Cotia, Brazil) and the CB1R antagonist AM 251 (1 μM, Tocris, Ellisville, Mo., USA).
Cell apoptosis was evaluated by the terminal deoxynucleotidyl transferase dUTP nick-end labeling (TUNEL) assay which is a method that detects DNA fragmentation.
SVZ cells treated with Hp for 48 h, in serum free medium devoid of growth factor (differentiation conditions), were rinsed 3×10 min with 0.15 M PBS and permeabilized in 0.25% Triton X-100 for 30 min at RT. Cells were then incubated with terminal deoxynucleotidyl transferase buffer (0.25 U/μl terminal transferase), 6 μM biotinylated dUTP, pH 7.5)) (all from Roche, Basel, Switzerland) for 1 h at 37° C. in a humidified chamber, and then rinsed in TB buffer (300 mM NaCl and 30 mM sodium citrate) for 15 min and in PBS for 5 min. Incubation with Fluorescein was performed for 1 h and nuclei counterstaining and mounting were performed as described previously.
(§1) Fluorescence images were recorded using an LSM 510 Meta confocal microscope or an Axioskop 2 Plus fluorescence microscope (both from Carl Zeiss). In all experiments, measurements were performed in the border of SVZ neurospheres where migrating cells form a cell monolayer. […] Percentages of TUNEL or BrdU immunoreactive cells in SVZ cell cultures were calculated from cell counts in five independent microscopic fields in each coverslip with a x40 objective (approximately 200 cells per field). […] For SCCl experiments, the percentage of oligodendrocytic-like responding cells (with a Thromb/Hist ratio above 1.3) was calculated on the basis of one microscopic field per coverslip, containing approximately 100 cells (magnification, ×40).
The effect of Hp on cell death was evaluated after 48 hours of treatment with Hp.

SVZ cells [2] = assay: BrdU cell proliferation study in SVZ cell cultures; type: cell-based, mouse; details: 48 hours, BrdU last 4 hours
Description: SVZ cell cultures were obtained from early postnatal (P1-3) C57B1/6 donor mice as described previously.
Brains were removed following decapitation and placed in HBSS solution (Gibco, Carlsbad, Calif., USA). Fragments of SVZ were dissected out of 450 μm thick coronal brain sections, digested in 0.025% trypsin and 0.265 mM EDTA (Gibco), and dissociated by gentle mixing. The cell suspension was diluted in serum-free culture medium (SFM) composed of Dulbecco's modified eagle medium (D-MEM/F12 Gluta-MAX™-I, Gibco) supplemented with 100 U/mL penicillin, 100 μg/mL streptomycin (Gibco), 1% B27 (Gibco), 10 ng/mL epidermal growth factor (EGF; Gibco), and 5 ng/mL basic fibroblast growth factor (FGF-2, Gibco). Single cells were then plated on uncoated Petri dishes at a density of 3000 cells/cm^2. […]
as §1, with “Zeiss).” for “Zeiss). In all experiments, measurements were performed in the border of SVZ neurospheres where migrating cells form a cell monolayer.”, “×40). […]” for “×40).”

Structure (SMILES): CC(C)C[C@H](NC(=O)[C@H](Cc1ccccc1)NC(=O)[C@H](CCCCN)NC(=O)[C@H](Cc1ccccc1)NC(=O)[C@H](CC(N)=O)NC(=O)[C@@H](NC(=O)[C@@H]1CCCN1)C(C)C)C(=O)N[C@@H](CO)C(=O)N[C@@H](Cc1cnc[nH]1)C(=O)O [Hp, PVNFKFLSH]
- toxicity to the cells (TUNEL) (SVZ cells [1]; 48 hours of treatment): not toxic to the cells
- TUNEL-positive nuclei (SVZ cells [1]; Hp 100 nM): 10.26±1.69
- TUNEL-positive nuclei (SVZ cells [1]; Hp 1 μM): 13.25±1.56%
- percentage of BrdU-positive cells (SVZ cells [2]; 1 μM): 4.70±0.53%
- percentage of BrdU-positive cells (SVZ cells [2]; Hp 100 nM): 4.01±0.81%
